We go through 2 compounds from patent US20230381142A1, “ANTILEISHMANIAL COMPOUNDS, COMPOSITIONS AND USE THEREOF” (TRUSTEES OF BOSTON UNIVERSITY, priority 2022, published 2023).

Converted amounts (≈) assume the structure as drawn.

Data set [1] can be described thus: Plasma protein binding (RED). The data set is classed as in vitro ADME. On the procedure:
The unbound fraction of compound 1 in plasma was measured using a commercial RED (Rapid Equilibrium Dialysis) plate with inserts (Thermo) with a molecular weight membrane cut off of 8K. The relevant volume of spiked sample matrix was added into the corresponding sample chambers of the RED insert. Three volume equivalents of dialysis buffer were added to the buffer chamber. The dialysis plate was sealed and incubated at 37° C. on a plate shaker for approximately 4 h at 100 rpm. An equivalent volume was removed from each of the three buffer sample chambers and placed into its own well in a clean plate. A specific volume of control matrix was added to each buffer sample for matrix matching. Next, >3× volume of precipitation solvent (acetonitrile+internal standard) was added and the plate was centrifuged. A measured volume of the resulting supernatants was transferred into a clean plate and a specific volume of analytical grade water was added to all samples. Samples were analyzed using a compound-specific LC-MS/MS method to generate analyte peak area ratios which are representative of bound and free drug.

A further data set concerns HepG2 cells. The data set is described as follows: HepG2 cytotoxicity. The settings on record: Homo sapiens; toxicity against HepG2 cells. It is filed as cell-based.
Data set [2] in a line: Solubility in Fasted Simulated Intestinal Fluid (FaSSIF). The data set is classed as physicochemical. The settings on record: thermodynamic from solid. The protocol:
Solubility of compounds using ChemiLuminescent Nitrogen Detection (CLND) was measured as described. Solubility of compounds using Charged Aerosol Detection (CAD) was measured as described. Solubility of solid compounds in Fasted Simulated Intestinal Fluid (FaSSIF) was measured as described.

Another data set relates to host THP-1 macrophages. The data set can be described thus: GSK inMac assay, host cell toxicity readout (LD MAC). It is filed as cell-based, human. A digest of the protocol: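 Intramacrophage L. donovani assay in THP-1 macrophages; host toxicity taken from host cell number per well, giving MAC EC50. Run alongside amastigote-per-cell and infected-cell readouts in the same wells.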

The nature of data set [3]: Host THP-1 cell cytotoxicity in the CDIPD high content screen. It is filed as cell-based, human. The note with it: human. On the procedure:
Assay Conditions B: THP-1 cells (human acute monocytic leukemia cell line—ATCC TIB202) were grown in RPMI supplemented with 10% Fetal Bovine Serum (FBS) and 50 μM 2-mercaptoethanol at 37° C. in 5% CO2. THP-1 were seeded in microwell plates at 5×10^5 cells/mL density and treated with 0.1 μM phorbol myristate acetate (PMA, Sigma) at 37° C. for 48 h for differentiation into adherent, non-dividing macrophages. After activation by PMA, cells were washed and incubated with complete RPMI medium containing stationary phase Leishmania promastigotes (L. major: strain LV39; L. donovani, strain 1S/Cl2D) at a 1:15 parasite-cell ratio. Compounds were added and incubated at 37° C. for 72 h. Cells were then washed with phosphate-buffered saline (PBS), fixed for 30 minutes with 4% formaldehyde, rinsed again with PBS, stained for 2 h with 4′,6′-diamidino-2-phenylindole (DAPI 300 nM) and finally washed with PBS. In a collaborative effort to identify new antileishmanial chemotypes with minimal host cell cytotoxicity, compounds from the Boston University Center for Molecular Discovery (BUCMD) screening collection were assessed in a phenotypic, high content primary screen at the University of California's Center for Discovery and Innovation in Parasitic Diseases (CDIPD) for the ability to inhibit growth of L. donovani intracellular amastigotes infecting THP-1 cells. […] Dose-response testing in L. donovani (both intracellular amastigotes and promastigotes) confirmed concentration-dependent growth inhibition of both morphologies of the parasite at low micromolar EC50 values for both compounds (Table 1).

Data set [4] deals with L. donovani intracellular amastigotes in B10R cells. The data set can be described thus: UCSD L. donovani infection assay (Assay Conditions D). It is filed as cell-based. The note with it: Leishmania donovani. In short, it runs like this: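 B10R cells (300/well) infected with stationary-phase L. donovani WT promastigotes at 20 parasites/cell in DMEM high-glucose, 5% FBS, with compounds 72 h at 37° C., 5% CO2. Formaldehyde-fixed, DAPI-stained, imaged by high-content microscopy; 10-point 2-fold dilutions (screen at 10 μM) gave EC50 and host CC50.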

Setting [5] is: Homo sapiens, THP-1, cytotoxicity against host THP-1 macrophages.

For the compound `COc1ccc(N2C(=O)c3[nH]nc(CC(C)C)c3C2c2ccc(F)cc2)cc1` (racemic) [Compound 1, 4-(4-fluorophenyl)-3-isobutyl-5-(4-methoxyphenyl)-4,5-dihydropyrrolo[3,4-c]pyrazol-6(1H)-one], the free fraction (fraction unbound) at 4 h in data set [1] is 0.025. Further, the EC50 in the data set with HepG2 cells was found to be 63.1 µM; in the data set on host THP-1 macrophages (setting [5]), 15.8 µM; with host THP-1 macrophages (cytotoxicity against host THP-1 macrophages, listed as rac-1) it was 15.9 µM; in data set [4] (average of two biological replicates, read-out: L. donovani EC50 (UCSD assay)), 0.82 µM. The compound also registered a solubility in data set [2] of 130 µg/mL (≈ 343 µM). The same compound had a CC50 at 72 h in data set [3] of over 20 µM. For the same compound, the IC50 in data set [4] was found to be 0.8 µM.
In the case of `COc1ccc(N2C(=O)c3[nH]nc(CC(C)C)c3C2c2ccccc2)cc1` (stereo not drawn) [Compound 2], the EC50 was found to be 79.4 µM in the data set on HepG2 cells and 31.6 µM with host THP-1 macrophages (setting [5]). In data set [3], this compound had a CC50 at 72 h of over 20 µM. In data set [4], this compound gave an IC50 of 1.1 µM.

Broadly, the fraction unbound is the share of the substance not bound to proteins or other matrix. By EC50 is commonly meant the concentration that produces a half-maximal response. One may read the solubility as the concentration that dissolves in the medium under given conditions. Low values mean a poorly soluble substance, high ones a readily soluble substance. What is called CC50 is the concentration giving 50% cytotoxicity. Low values mean harm at low concentration, high ones better tolerance by the cells. Usually IC50 stands for the concentration at which inhibition is half-maximal. Low readings indicate greater potency, high ones weaker potency.
